Measurements taken from patent publication US8877773B2, “Methods for treating chronic obstructive pulmonary disease” (Indiana University Research and Technology Corporation, priority 2009, dated 2014).
“Also recorded” adds a separate entry of the source.

How the values were obtained:
[1] = tested on: control rats; assay: Baseline behavior and cardiovascular activity in control rats; format: in vivo, rat; conditions: control rats (no 1-AG or NaLac), 30 mg/kg i.p., 30 min following injection
Description: In experiments 4-6, rats were made panic vulnerable with 1-AG. 5 days after 1-AG onset, in a counterbalanced design, rats received intraperitoneal (i.p.) injections of treatment drug or vehicle 30 min prior to i.v. infusions. […] In experiment 5, baseline in an open field (OF) behavior test of anxiety was assessed (n=8) prior to 1-AG infusions. […] Immediately following the NaLac challenge, rats were placed in the OF test. […] In experiment 6,1-AG treated rats received an injection of an alternative ORX1 receptor antagonist (30 mg/kg SB408124 (N-(6,8-Difluoro-2-methyl-4-quinolinyl)-N′-(4-(dimethylamino)phenyl)urea), Tocris, in 0.2 ml/100 g volume DMSO, n=4) or vehicle (0.2 ml/100 g volume DMSO, n=6) 30 min prior to NaLac. In experiment 7, control rats (no 1-AG or NaLac treatment) were assessed in a SI test.
Adult male Sprague-Dawley rats were anesthetized and surgically implanted with telemetrical probes to measure cardiovascular activity prior to and during lactate infusions. […] 1960, Tocris, in 0.2 ml/100 g volume DMSO, n=7] or vehicle (0.2 ml/100 g volume DMSO, n=7). Cardiovascular activity and SI tests were monitored 30 min following injection at similar time points.

[2] = in vivo; cited from earlier work
[3] = tested on: rats exposed to hypercarbic gas; assay: Hypercarbic gas (20% CO2) challenge: open-field test; format: in vivo, rat; conditions: 30 mg/kg i.p.
Description: (§1) On day 1, rats (n=3/group) were selected from their home cages and placed into experimental cages containing atmospheric air. […] Fecal pellets were counted in cages at the end of gas challenges. In order to assess anxiety-like behavioural responses following exposure to hypercarbic gas, rats were immediately transferred to an adjacent room and place in the center square of an open-field box for a 5 min test. On day 2, the experiment was repeated, but the treatments were reversed for each rat. For instance, rats that received atmospheric gas challenge on day 1 received the hypercapnic gas challenge on day 2.
The open-field arena covered an area of 90 cm×90 cm, with 40 cm high walls. The open-field arena was divided into a 6×6 grid of equally-sized squares using black tape (36 total squares) with 4 squares forming the center; 12 squares forming the middle perimeter; and 20 squares forming the outer perimeter. The test started by placing a rat in the center. The behavior of each rat in the open-field arena was recorded on video and scored afterwards by an observer (PLJ) blind to the experimental treatment of each rat. Time spent in each region of the open-field was recorded. In addition, locomotor activity was assessed by counting the number of times the rat's entire body (excluding tail) completely crossed into another square.
(§2) All rats received hypercarbic gas infusions as described in detail in Experiment 11. […] Blood pressure, heart rate, locomotor activity, number of fecal pellets and anxiety-like behavior were assessed as described in Experiment 11.
(§3) Dependent variables for analyses of cardiovascular responses (HR, MAP) and locomotor activity were analysed using a […], using gas infusion as the between-subjects factor and time as a within-subjects factor. Dependent variables for the number of fecal pellets and open-field anxiety test (i.e., time spent in each section, line crossings) were analysed using a one-way ANOVA with gas infusion in Experiment 11 and drug treatment in Experiment 12 as the between-subjects factors. […] Within-subjects comparisons were also made on the MAP and HR measures using a Dunnett's test for multiple comparisons with a single control using the 5 Min baseline measurement as the control. The alpha level was set at 0.05 in all cases.

[4] = tested on: panic-prone (1-AG treated) rats; assay: Sodium lactate (NaLac) challenge in panic-prone rats: open field test; format: in vivo, rat; conditions: 30 mg/kg i.p. 30 min prior to NaLac, experiment 5
Description: The open-field arena covered an area of 0.9 m×0.9 m, with 0.4 m high walls. The open-field arena was divided into a 6×6 grid of equally-sized squares using black tape (36 total squares) with 4 squares forming the centre; 12 squares forming the middle perimeter; and 20 squares forming the outer perimeter. The test started by placing a rat in the centre. The behavior of each rat in the open-field arena was recorded on video and scored afterwards by an observer blind to the experimental treatment of each rat. Time spent in each region of the open-field was recorded.
In experiments 4-6, rats were made panic vulnerable with 1-AG. […] In experiment 5, baseline in an open field (OF) behavior test of anxiety was assessed (n=8) prior to 1-AG infusions. […] In experiment 7, control rats (no 1-AG or NaLac treatment) were assessed in a SI test.
All adult male Sprague-Dawley rats were anesthetized and surgically implanted with telemetrical probes to measure cardiovascular activity prior to and during lactate infusions. After a 3 day recovery, baseline open field behavior was assessed (n=8), then rats were anaesthetized and had osmotic minipumps (previously filled with 1-AG) stereotaxically implanted unilaterally into the DMH. […] Immediately following the lactate challenge, the rats were assessed for anxiety using the open field test.

[5] = tested on: rats exposed to hypercarbic gas; assay: Hypercarbic gas (20% CO2) challenge: MAP, HR, locomotor activity, fecal pellets; format: in vivo, rat
Description: Prior to surgery, rats were anesthetised with a nose cone connected to an isoflurane system (MGX Research Machine; Vetamic, Rossville Ind., USA) during the surgery. […] Briefly, cardiovascular responses were measured by a femoral arterial line connected to a telemetric probe that contained a pressure transducer [Cat. no. C50-PXT, Data Sciences International (DSI), St. Paul, Minn., USA]. DSI dataquest software was used to monitor and record MAP and HR. For the duration of each experiment, MAP and HR were recorded continuously in freely moving conscious rats. Data were analyzed during the period 5 min prior to, 5 min during, and 5 min following the gas challenges. The data reported are changes in HR and MAP, expressed in 1 min bins, relative to the average of the baseline measurement (t−5 min to t−1 min) from each rat.
Flow cages (12 in. width×12 in. height×24 in. length) were custom built using Plexiglas®. When the lid of the cage was latched, gases could only enter the cage through an inlet connector (for the gas infusion) and could only exit the cage through an outlet connector. The gas flow into the cages was controlled using a 2-stage regulator (Praxair, Inc., Danbury, Conn., USA) at a pressure of 0.6 Bar.
as §1, §2, §3

[6] = 20% CO2, 30 mg/kg i.p. 30 min prior

Structure (SMILES): Cc1nc2ccc(NC(=O)Nc3ccnc4cccnc34)cc2o1 [SB334867, N-(2-Methyl-6-benzoxazolyl)-N′-1,5-naphthyridin-4-yl urea]
- HR in control rats [1]: had no effect; also recorded: does not alter; also recorded: did not alter
- MAP in control rats [1]: had no effect; also recorded: does not alter; also recorded: did not alter
- blood-brain barrier passage [2]: crosses the blood-brain barrier
- time spent in the center of open field after hypercarbic gas ([3]; between groups): No differences
- time spent in the outer perimeter of open field after hypercarbic gas ([3]; between groups): No differences
- hypercapnic gas-induced anxiety responses ([3]; 20% CO2/normoxic gas): attenuated
- time in the middle perimeter region of open field after hypercarbic gas ([3]; SB/CO2 vs Veh/CO2 group): significantly more time
- anxiety-like responses (decreased time spent in center of open field) after NaLac challenge [4]: attenuated
- hypercarbic gas-induced changes in MAP (pressor response) ([5]; 20% CO2/normoxic gas 5 min, 30 mg/kg i.p. 30 min prior): attenuated
- hypercarbic gas-induced bradycardia ([5]; 20% CO2/normoxic gas 5 min, 30 mg/kg i.p. 30 min prior, 30 mg/kg): without altering; also recorded: had no effect
- hypercarbic gas-induced increase in numbers of fecal pellets [5, 6]: attenuated
- locomotor responses over time prior to, during or after hypercarbic gas [5, 6]: Neither the vehicle nor SB334867 treated rats had a change in locomotor responses
- locomotor activity prior to hypercarbic gas infusion ([5]; baseline, 30 mg/kg i.p., vs vehicle-treated rats): higher
